Experimental findings from patent US10815210B2, “Benzocyclobutane derivatives useful as dual SGLT1 / SGLT2 modulators” (Janssen Pharmaceutica NV, priority 2016, dated 2020) are described below.

For assay [1], the target named is T1, human SGLT2 (Homo sapiens, UniProt P31639).
T1 construct: expressed in transfected cells; host or cells: CHO-K1
T1 sequence (P31639 1-672): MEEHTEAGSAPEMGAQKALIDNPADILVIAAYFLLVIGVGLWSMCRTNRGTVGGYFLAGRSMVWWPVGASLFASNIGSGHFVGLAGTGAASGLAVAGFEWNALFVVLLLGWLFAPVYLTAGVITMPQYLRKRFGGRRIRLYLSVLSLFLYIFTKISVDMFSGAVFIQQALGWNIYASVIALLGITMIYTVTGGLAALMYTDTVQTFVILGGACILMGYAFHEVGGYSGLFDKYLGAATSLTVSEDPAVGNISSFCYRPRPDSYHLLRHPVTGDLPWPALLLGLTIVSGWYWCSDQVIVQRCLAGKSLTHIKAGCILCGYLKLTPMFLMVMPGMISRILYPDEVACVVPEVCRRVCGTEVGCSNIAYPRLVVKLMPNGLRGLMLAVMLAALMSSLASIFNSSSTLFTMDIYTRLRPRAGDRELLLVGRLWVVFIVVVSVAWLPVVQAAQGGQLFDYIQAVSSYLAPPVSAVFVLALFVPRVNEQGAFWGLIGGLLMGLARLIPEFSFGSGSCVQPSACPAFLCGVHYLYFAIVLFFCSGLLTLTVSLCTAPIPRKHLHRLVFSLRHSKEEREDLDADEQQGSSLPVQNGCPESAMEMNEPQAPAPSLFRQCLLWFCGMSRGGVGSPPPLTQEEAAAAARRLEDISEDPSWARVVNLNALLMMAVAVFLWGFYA
Briefly: SGLT2 assay: Na-dependent 14C-AMG uptake in CHO-K1 cells stably expressing human SGLT2. The class given is cell-based. The conditions noted are these: 500 μM AMG, 2 hours at 37° C. The method in brief: (§1)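 CHO-K1 cells stably expressing human SGLT1 or SGLT2, pretreated 24 h with 10 mM Na-butyrate, were exposed 10 min to compound (0.001-10 μM) in Na-containing HEPES/Tris buffer pH 7.4. Uptake of ^14C-AMG (500 μM final) ran 2 h at 37° C, then Na-dependent uptake was counted by scintillation.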

The target in assay [2] is T2, human SGLT1 (Homo sapiens, UniProt P13866).
T2 construct: expressed in transfected cells; host or cells: CHO-K1
T2 sequence (P13866 1-664): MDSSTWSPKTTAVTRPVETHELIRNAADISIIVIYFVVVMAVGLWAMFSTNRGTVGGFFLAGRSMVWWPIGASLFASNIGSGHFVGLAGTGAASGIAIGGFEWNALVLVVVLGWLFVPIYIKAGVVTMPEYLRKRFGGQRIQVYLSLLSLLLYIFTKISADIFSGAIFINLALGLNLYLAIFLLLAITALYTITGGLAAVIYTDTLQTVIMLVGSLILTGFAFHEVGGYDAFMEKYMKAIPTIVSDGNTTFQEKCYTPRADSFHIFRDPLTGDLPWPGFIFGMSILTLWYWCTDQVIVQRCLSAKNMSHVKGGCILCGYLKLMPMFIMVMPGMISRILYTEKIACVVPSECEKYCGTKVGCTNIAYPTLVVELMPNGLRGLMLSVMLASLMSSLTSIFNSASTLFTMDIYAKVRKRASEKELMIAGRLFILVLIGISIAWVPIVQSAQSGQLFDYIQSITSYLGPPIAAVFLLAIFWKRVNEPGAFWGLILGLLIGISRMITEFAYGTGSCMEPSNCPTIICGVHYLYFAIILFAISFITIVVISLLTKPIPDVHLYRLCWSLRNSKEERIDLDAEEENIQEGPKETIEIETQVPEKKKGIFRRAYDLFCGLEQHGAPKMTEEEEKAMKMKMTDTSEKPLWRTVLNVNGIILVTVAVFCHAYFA
Briefly: SGLT1 assay: Na-dependent 14C-AMG uptake in CHO-K1 cells stably expressing human SGLT1. The class given is cell-based. The conditions noted are these: 500 μM AMG, 2 hours at 37° C. An outline of the steps: as §1

Usually IC50 stands for the concentration that gives 50% inhibition. Low readings indicate higher potency, high ones lower potency. For `[2H]C1([2H])c2ccc(Cc3cc([C@@H]4O[C@H](CO)[C@@H](O)[C@H](O)[C@H]4O)ccc3Cl)cc2C1([2H])[2H]` [Compound 123], the 50% inhibitory concentration (IC50) in assay [1] turned out to be 1 nM; in assay [2], 80 nM.

Regarding `Cc1ccc([C@@H]2O[C@H](CO)[C@@H](F)[C@H](O)[C@H]2O)cc1Cc1ccc2c(c1)CC2` [Compound 126], the results for the IC50 in assay [1] and in assay [2] were 4 nM and 52 nM, respectively.

With `CCc1cc(O)c([C@@H]2O[C@H](CO)[C@@H](F)[C@H](O)[C@H]2O)cc1Cc1ccc2c(c1)CC2` [Compound 127], the IC50 in assay [1] was 2 nM; in assay [2], 1 nM.

For `CCc1ccc([C@@H]2O[C@H](CO)[C@@H](F)[C@H](O)[C@H]2O)cc1Cc1ccc2c(c1)CC2` [Compound 128], the IC50 in assay [1] was determined as 8 nM; in assay [2] it was 47 nM.

With `OC[C@H]1O[C@@H](c2cc(Cc3ccc4c(c3)CC4)c(Cl)cc2O)[C@H](O)[C@@H](O)[C@@H]1F` [Compound 129], the IC50 came to 1 nM in assay [1] and 4 nM in assay [2].

On to `Cc1cc(O)c([C@@H]2O[C@H](CO)[C@@H](F)[C@H](O)[C@H]2O)cc1Cc1ccc2c(c1)CC2` [Compound 130], for which the values for the half-maximal inhibitory concentration (IC50) in assay [1] and in assay [2] were 1 nM and 15 nM, respectively.

Take `CCOc1cc(C)c(Cc2ccc3c(c2)CC3)cc1[C@@H]1O[C@H](CO)[C@@H](F)[C@H](O)[C@H]1O` [Compound 131]: the values for the IC50 in assay [1] and in assay [2] were 1 nM and 49 nM, respectively.

For the compound `CCOc1cc(Cl)c(Cc2ccc3c(c2)CC3)cc1[C@@H]1O[C@H](CO)[C@@H](F)[C@H](O)[C@H]1O` [Compound 132], the IC50 in assay [1] came out at 1 nM; in assay [2], 18 nM.

`COc1cc(Cl)c(Cc2ccc3c(c2)CC3)cc1[C@@H]1O[C@H](CO)[C@@H](F)[C@H](O)[C@H]1O` [Compound 133]: the IC50 in assay [1] was 1 nM; in assay [2], 15 nM.

With `OC[C@H]1O[C@@H](c2ccc(Cl)c(Cc3ccc4c(c3)CC4)c2)[C@H](O)[C@@H](O)[C@@H]1F` [Compound 134], the concentration for half-maximal inhibition (IC50) in assay [1] stood at 2 nM; in assay [2], 36 nM.

`COc1cc(O)c([C@@H]2O[C@H](CO)[C@@H](F)[C@H](O)[C@H]2O)cc1Cc1ccc2c(c1)CC2` [Compound 135]: the IC50 in assay [1] and in assay [2] was 3 nM each time.

`COc1cc(OC)c([C@@H]2O[C@H](CO)[C@@H](F)[C@H](O)[C@H]2O)cc1Cc1ccc2c(c1)CC2` [Compound 136]: the IC50 in assay [1] turned out to be 1 nM; in assay [2] it was 9 nM.

Take `CCOc1cc(OC)c(Cc2ccc3c(c2)CC3)cc1[C@@H]1O[C@H](CO)[C@@H](F)[C@H](O)[C@H]1O` [Compound 137]: the IC50 in assay [1] was determined as 1 nM; in assay [2] it was 20 nM.

Regarding `OC[C@H]1O[C@@H](c2ccc(Cl)c(C(F)(F)c3ccc4c(c3)CC4)c2)[C@H](O)[C@@H](O)[C@@H]1O` [Compound 140], the IC50 in assay [1] was 2 nM; in assay [2], 50 nM.

Regarding `Cc1ccc([C@@H]2O[C@H](CO)[C@@H](O)[C@H](O)[C@H]2O)cc1C(F)(F)c1ccc2c(c1)CC2` [Compound 141], the values for the IC50 in assay [1] and in assay [2] were 2 nM and 33 nM, respectively.

Consider `Cc1ccc([C@@H]2O[C@H](CO)[C@@H](F)[C@H](O)[C@H]2O)cc1C(F)(F)c1ccc2c(c1)CC2` [Compound 142], for which the IC50 in assay [1] is 23 nM; in assay [2] it was 133 nM.
